Measurements from US10239873B2, “7-azaindole or 4,7-diazaindole derivatives as IKKϵ epsilon and TBK1 inhibitor and pharmaceutical composition comprising same” (GREEN CROSS CORPORATION, priority 2015, dated 2019).

What follows are compounds tested against T1, TBK1 (Homo sapiens, UniProt Q9UHD2) (assay: ADP-Glo Kinase Assay, inhibition activity on TBK1).
T1 construct: purchased Promega (Invitrogen is also named in the same bracket) V4158; PR8031B; V3991 (not assigned to the two kinases)
T1 sequence (Q9UHD2 1-729): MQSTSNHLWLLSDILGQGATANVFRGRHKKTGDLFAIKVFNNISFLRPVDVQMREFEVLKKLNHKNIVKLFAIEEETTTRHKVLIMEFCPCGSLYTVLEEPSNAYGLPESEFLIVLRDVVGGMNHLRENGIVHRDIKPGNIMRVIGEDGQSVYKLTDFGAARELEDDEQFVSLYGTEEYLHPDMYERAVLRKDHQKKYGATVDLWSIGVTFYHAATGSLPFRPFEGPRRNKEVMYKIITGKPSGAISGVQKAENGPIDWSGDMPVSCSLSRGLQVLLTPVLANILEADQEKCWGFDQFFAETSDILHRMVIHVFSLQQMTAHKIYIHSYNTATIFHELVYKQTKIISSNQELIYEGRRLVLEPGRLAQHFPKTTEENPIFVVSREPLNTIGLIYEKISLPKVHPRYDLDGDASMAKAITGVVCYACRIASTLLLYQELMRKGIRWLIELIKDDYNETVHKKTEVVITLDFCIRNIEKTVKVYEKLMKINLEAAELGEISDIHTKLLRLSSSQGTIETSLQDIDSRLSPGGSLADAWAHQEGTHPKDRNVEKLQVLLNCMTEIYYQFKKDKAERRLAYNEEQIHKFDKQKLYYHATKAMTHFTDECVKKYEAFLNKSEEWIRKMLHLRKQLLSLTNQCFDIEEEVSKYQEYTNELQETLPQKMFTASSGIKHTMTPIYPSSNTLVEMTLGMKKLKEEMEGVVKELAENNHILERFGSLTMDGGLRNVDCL
Format: biochemical
Outline: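 Kinase activity measured with the ADP-Glo luminescent ADP-detection kit per manufacturer's protocol, using IKKε or TBK1 kinase enzyme systems. Reaction buffer: 40 mM Tris (pH 7.5), 20 mM MgCl2, 0.1 mg/mL BSA; luminescence read on a luminometer.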

IC50 [µM] | Compound
> 10 | CC(C)(C)OC(=O)N1CC=C(c2c[nH]c3nc(N)c(-c4ccc(CN5CCOCC5)s4)cc23)CC1 [Example 225, tert-butyl 4-(6-amino-5-(5-(morpholinomethyl)thiophen-2-yl)-1H-pyrrolo[2,3-b]pyridin-3-yl)-5,6-dihydropyridine-1(2H)-carboxylate]
> 10 | CS(=O)(=O)c1ccc(-c2cnc3[nH]cc(C4=CCN(C(=O)c5cccs5)CC4)c3c2)cc1 [Example 194, (4-(5-(4-(methylsulfonyl)phenyl)-1H-pyrrolo[2,3-b]pyridin-3-yl)-5,6-dihydropyridin-1(2H)-yl)(thiophen-2-yl)methanone]
0.0075 | CCC(C)NC(=O)N1CC=C(c2c[nH]c3ncc(-c4ccc(OC)c(OC)c4)cc23)CC1 (stereo not shown) [Example 44, N-(sec-butyl)-4-(5-(3,4-dimethoxyphenyl)-1H-pyrrolo[2,3-b]pyridin-3-yl)-5,6-dihydropyridine-1(2H)-carboxamide]
1.3 | COc1ccc(-c2cnc3[nH]cc(C4=CCN(C(=O)N(C)C5CCCC5)CC4)c3c2)cc1OC [Example 220, N-cyclopentyl-4-(5-(3,4-dimethoxyphenyl)-1H-pyrrolo[2,3-b]pyridin-3-yl)-N-methyl-5,6-dihydropyridine-1(2H)-carboxamide]
0.038 | CNS(=O)(=O)c1ccc(-c2cnc3[nH]cc(C4=CCN(C(=O)NC5CCCC5)CC4)c3c2)cc1 [Example 60, N-cyclopentyl-4-(5-(4-(N-methylsulfamoyl)phenyl)-1H-pyrrolo[2,3-b]pyridin-3-yl)-5,6-dihydropyridine-1(2H)-carboxamide]
0.078 | CC1CN(C(=O)c2cccs2)CC=C1c1c[nH]c2ncc(-c3ccc(S(C)(=O)=O)cc3)cc12 (stereo not shown) [Example 214, (5-methyl-4-(5-(4-(methylsulfonyl)phenyl)-1H-pyrrolo[2,3-b]pyridin-3-yl)-5,6-dihydropyridin-1(2H)-yl)(thiophen-2-yl)methanone]
0.03 | CNS(=O)(=O)c1cccc(-c2cnc3[nH]cc(C4=CCN(C(=O)NC5CCCC5)CC4)c3c2)c1 [Example 59, N-cyclopentyl-4-(5-(3-(N-methylsulfamoyl)phenyl)-1H-pyrrolo[2,3-b]pyridin-3-yl)-5,6-dihydropyridine-1(2H)-carboxamide]
0.17 | CNS(=O)(=O)c1ccc(-c2cnc3[nH]cc(C4=CCN(C(=O)OC5CCCC5)CC4)c3c2)cc1 [Example 178, Cyclopentyl 4-(5-(4-(N-methylsulfamoyl)phenyl)-1H-pyrrolo[2,3-b]pyridin-3-yl)-5,6-dihydropyridine-1(2H)-carboxylate]
1.3 | CC(C)(C)OC(=O)N1CC=C(c2c[nH]c3ncc(-c4ccc(C#N)cc4)cc23)CC1 [Example 168, tert-Butyl 4-(5-(4-cyanophenyl)-1H-pyrrolo[2,3-b]pyridin-3-yl)-5,6-dihydropyridine-1(2H)-carboxylate]
0.066 | CCS(=O)(=O)c1ccc(-c2cnc3[nH]cc(C4=CCN(C(=O)NC5CCCC5)CC4)c3c2)cc1 [Example 53, N-cyclopentyl-4-(5-(4-(ethylsulfonyl)phenyl)-1H-pyrrolo[2,3-b]pyridin-3-yl)-3,6-dihydropyridine-1(2H)-carboxamide]
> 10 | O=C(c1cccs1)N1CC=C(c2c[nH]c3ncc(-c4ccc(F)c(F)c4)cc23)CC1 [Example 189, (4-(5-(3,4-Difluorophenyl)-1H-pyrrolo[2,3-b]pyridin-3-yl)-5,6-dihydropyridin-1(2H)-yl)(thiophen-2-yl)methanone]
0.17 | CC(=O)Nc1ccc(-c2cnc3[nH]cc(C4=CCN(C(=O)OC(C)(C)C)CC4)c3c2)cc1 [Example 241, tert-butyl 4-(5-(4-acetamidophenyl)-1H-pyrrolo[2,3-b]pyridin-3-yl)-5,6-dihydropyridine-1(2H)-carboxylate]
0.071 | CCC1CN(C(=O)NC2CCCC2)CC=C1c1c[nH]c2ncc(-c3ccc(CN4CCOCC4)s3)cc12 (stereo not shown) [Example 128, N-cyclopentyl-5-ethyl-4-(5-(5-(morpholinomethyl)thiophen-2-yl)-1H-pyrrolo[2,3-b]pyridin-3-yl)-5,6-dihydropyridine-1(2H)-carboxamide]
0.066 | O=C(NC1CCCC1)N1CC=C(c2c[nH]c3ncc(-c4ccc(CN5CCOCC5)s4)nc23)CC1 [Example 229, N-cyclopentyl-4-(2-(5-(morpholinomethyl)thiophen-2-yl)-5H-pyrrolo[2,3-b]pyrazin-7-yl)-5,6-dihydropyridine-1(2H)-carboxamide]
1.1 | CCOC(=O)N1CC=C(c2c[nH]c3ncccc23)CC1 [Example 135, Ethyl 4-(1H-pyrrolo[2,3-b]pyridin-3-yl)-5,6-dihydropyridine-1(2H)-carboxylate]
0.31 | O=C(OC1CCCC1)N1CC=C(c2c[nH]c3ncccc23)CC1 [Example 140, Cyclopentyl 4-(1H-pyrrolo[2,3-b]pyridin-3-yl)-3,6-dihydropyridine-1(2H)-carboxylate]
> 10 | COc1ccc(-c2cc3c(C4=CCN(C(=O)NC5CCCC5)CC4)c[nH]c3nc2N)cc1OC [Example 226, 4-(6-amino-5-(3,4-dimethoxyphenyl)-1H-pyrrolo[2,3-b]pyridin-3-yl)-N-cyclopentyl-5,6-dihydropyridine-1(2H)-carboxamide]
0.41 | CC(C)(C)OC(=O)N1CC=C(c2c[nH]c3ncc(-c4ccc(N5CCOCC5)cc4)cc23)CC1 [Example 158, tert-Butyl 4-(5-(4-morpholinophenyl)-1H-pyrrolo[2,3-b]pyridin-3-yl)-5,6-dihydropyridine-1(2H)-carboxylate]
0.47 | CC(C)(C)OC(=O)N1CC=C(c2c[nH]c3ncc(-c4ccc(CN5CCOCC5)s4)nc23)CC1 [Example 234, tert-butyl 4-(2-(5-(morpholinomethyl)thiophen-2-yl)-5H-pyrrolo[2,3-b]pyrazin-7-yl)-5,6-dihydropyridine-1(2H)-carboxylate]
0.18 | COc1ccc(-c2cnc3[nH]cc(C4=CCN(C(=O)OC5CCCC5)CC4)c3c2)cc1S(=O)(=O)N1CCOCC1 [Example 182, Cyclopentyl 4-(5-(4-methoxy-3-(morpholinosulfonyl)phenyl)-1H-pyrrolo[2,3-b]pyridin-3-yl)-5,6-dihydropyridine-1(2H)-carboxylate]
0.039 | O=C(OC1CCCC1)N1CC=C(c2c[nH]c3ncc(-c4ccc(C(=O)N5CCOCC5)cc4)cc23)CC1 [Example 183, Cyclopentyl 4-(5-(4-(morpholine-4-carbonyl)phenyl)-1H-pyrrolo[2,3-b]pyridin-3-yl)-5,6-dihydropyridine-1(2H)-carboxylate]
0.11 | COc1ccc(-c2cnc3[nH]cc(C4=CCN(C(=O)c5cccs5)CC4)c3c2)cc1OC [Example 191, (4-(5-(3,4-Dimethoxyphenyl)-1H-pyrrolo[2,3-b]pyridin-3-yl)-5,6-dihydropyridin-1(2H)-yl)(thiophen-2-yl)methanone]
0.031 | NS(=O)(=O)c1cccc(-c2cnc3[nH]cc(C4=CCN(C(=O)NC5CCCC5)CC4)c3c2)c1 [Example 57, N-cyclopentyl-4-(5-(3-sulfamoylphenyl)-1H-pyrrolo[2,3-b]pyridin-3-yl)-5,6-dihydropyridine-1(2H)-carboxamide]
0.055 | CS(=O)(=O)c1cccc(-c2cnc3[nH]cc(C4=CCN(C(=O)OC5CCCC5)CC4)c3c2)c1 [Example 172, Cyclopentyl 4-(5-(3-(methylsulfonyl)phenyl)-1H-pyrrolo[2,3-b]pyridin-3-yl)-5,6-dihydropyridine-1(2H)-carboxylate]
0.1 | O=C(OC1CCCC1)N1CC=C(c2c[nH]c3ncc(-c4cccc(C(=O)N5CCOCC5)c4)cc23)CC1 [Example 184, Cyclopentyl 4-(5-(3-(morpholine-4-carbonyl)phenyl)-1H-pyrrolo[2,3-b]pyridin-3-yl)-5,6-dihydropyridine-1(2H)-carboxylate]
0.11 | COc1ccc(-c2cnc3[nH]cc(C4=CCN(C(=O)NN5CCCC5)CC4)c3c2)cc1OC [Example 85, 4-(5-(3,4-Dimethoxyphenyl)-1H-pyrrolo[2,3-b]pyridin-3-yl)-N-(pyrrolidin-1-yl)-5,6-dihydropyridine-1(2H)-carboxamide 2,2,2-trifluoroacetate]
0.028 | CNS(=O)(=O)c1ccc(-c2cnc3[nH]cc(C4=CCN(C(=O)OC(C)(C)C)CC4)c3c2)cc1 [Example 165, tert-Butyl 4-(5-(4-(N-methylsulfamoyl)phenyl)-1H-pyrrolo[2,3-b]pyridin-3-yl)-5,6-dihydropyridine-1(2H)-carboxylate]
0.061 | NS(=O)(=O)c1ccc(-c2cnc3[nH]cc(C4=CCN(C(=O)NC5CCCC5)CC4)c3c2)cc1 [Example 58, N-cyclopentyl-4-(5-(4-sulfamoylphenyl)-1H-pyrrolo[2,3-b]pyridin-3-yl)-5,6-dihydropyridine-1(2H)-carboxamide]
